Measurements from patent US8017612B2, “Piperazine compound and use thereof as a HCV polymerase inhibitor” (priority 2006, dated 2011).
pIC50: −log10 of the molar value.

Assays:
[1] = target: T1, HCV polymerase (NS5B) type 1a (Hepatitis C virus genotype 1a, UniProt P26664); experiment: Assay of enzyme (HCV polymerase) inhibitory activity, type 1a enzyme; type: biochemical, HCV type 1a (cloned from the blood of patients); conditions: HCV polymerase inhibitory activity (IC50), 1a, type 1a enzyme 1.5 μg/ml, 25° C., 60 min
T1 construct: made in house; host or cells: Escherichia coli (by the 'similar method' of the 1b enzyme)
How it was run: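 Patient-derived type 1a NS5B (C-terminal 47-aa deletion, His-tagged, E. coli-expressed) at 1.5 μg/ml was reacted with 5 μg/ml 3′UTR-containing substrate RNA, 50 μM ATP/GTP/CTP, 2 μM UTP plus [3H]UTP, pH 7.5, 25° C for 60 min. TCA-precipitated RNA radioactivity was counted; IC50 from ± compound.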

[2] = target: T2, HCV polymerase (NS5B) type 1b (Hepatitis C virus genotype 1b, UniProt P26663); experiment: Assay of enzyme (HCV polymerase) inhibitory activity, type 1b enzyme; type: biochemical, HCV BK strain (type 1b); conditions: HCV polymerase inhibitory activity (IC50), 1b, type 1b enzyme 0.5 μg/ml, 25° C., 60 min
T2 construct: a region encoding NS5B (J Virol 1991 March, 65(3), 1105-13, 544 amino acids after deletion of 47 amino acids on the C-terminal); 6xHis (C); made in house; host or cells: Escherichia coli
How it was run: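 NS5B from HCV BK strain (type 1b), C-terminal 47 aa deleted, C-terminal His6-tagged, E. coli-expressed, 0.5 μg/ml, with ~450 nt substrate RNA carrying the 3′ UTR (polyU, 3′X) at 5 μg/ml. Incubation 60 min at 25 °C with 50 μM ATP/GTP/CTP, 2 μM UTP plus [3H]UTP, pH 7.5 Tris.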

SMILES | pIC50 [1] | pIC50 [2]
CCC(F)(F)c1ccc(CNC(=O)[C@H]2CN(C(=O)Nc3nn[nH]n3)CCN2S(=O)(=O)c2ccc(OC(F)(F)F)cc2)cc1 [Example 566, (R)-4-(4-trifluoromethoxy-benzenesulfonyl)-piperazine-1,3-dicarboxylic acid 3-[4-(1,1-difluoro-propyl)-benzylamide] 1-[(2H-tetrazol-5-yl)-amide]] | 6.00 to 7.00 | > 7.00
CCC(F)(F)c1ccc(CNC(=O)[C@H]2CN(C(=O)Nc3csc(C)n3)CCN2S(=O)(=O)c2ccc(OC(F)(F)F)cc2)cc1 [Example 567, (R)-4-(4-trifluoromethoxy-benzenesulfonyl)-piperazine-1,3-dicarboxylic acid 3-[4-(1,1-difluoro-propyl)-benzylamide] 1-[(2-methyl-thiazol-4-yl)-amide]] | 6.00 to 7.00 | > 7.00
CCC(F)(F)c1ccc(CNC(=O)[C@H]2CN(C(=O)n3nc(C)nc3N)CCN2S(=O)(=O)c2ccc(OC(F)(F)F)cc2)cc1 [Example 568, (R)-4-(5-amino-3-methyl-[1,2,4]triazole-1-carbonyl)-1-(4-trifluoromethoxy-benzenesulfonyl)-piperazine-2-carboxylic acid 4-(1,1-difluoro-propyl)-benzylamide] | < 6.00 | < 6.00
CCC(F)(F)c1ccc(CNC(=O)[C@H]2CN(C(=O)Nc3ccn(C)n3)CCN2S(=O)(=O)c2ccc(OC(F)(F)F)cc2)cc1 [Example 569, (R)-4-(4-trifluoromethoxy-benzenesulfonyl)-piperazine-1,3-dicarboxylic acid 3-[4-(1,1-difluoro-propyl)-benzylamide] 1-[(1-methyl-1H-pyrazol-3-yl)-amide]] | 6.00 to 7.00 | > 7.00
CC(C)(C)c1ccc(CNC(=O)[C@H]2CN(c3ncc(CO)s3)CCN2S(=O)(=O)c2ccc(OC(F)(F)F)cc2)cc1 [Example 570, (R)-4-(5-hydroxymethyl-thiazol-2-yl)-1-(4-trifluoromethoxy-benzenesulfonyl)-piperazine-2-carboxylic acid 4-tert-butyl-benzylamide] | > 7.00 | > 7.00
CCCc1ccc(CNC(=O)[C@H]2CN(c3cc(Cl)ncn3)CCN2S(=O)(=O)c2ccc(OC(F)(F)F)cc2)cc1 [Example 571, (R)-4-(6-chloro-pyrimidin-4-yl)-1-(4-trifluoromethoxy-benzenesulfonyl)-piperazine-2-carboxylic acid 4-propyl-benzylamide] | > 7.00 | > 7.00
CCCc1ccc(CNC(=O)[C@H]2CN(c3ccncn3)CCN2S(=O)(=O)c2ccc(OC(F)(F)F)cc2)cc1 [Example 572, (R)-4-pyrimidin-4-yl-1-(4-trifluoromethoxy-benzenesulfonyl)-piperazine-2-carboxylic acid 4-propyl-benzylamide] | > 7.00 | > 7.00
CC(C)(C)c1ccc(CNC(=O)[C@H]2CN(c3nc4c(s3)C(=O)NC4=O)CCN2S(=O)(=O)c2ccc(OC(F)(F)F)cc2)cc1 [Example 573, (R)-4-(4,6-dioxo-5,6-dihydro-4H-pyrrolo[3,4-d]thiazol-2-yl)-1-(4-trifluoromethoxy-benzenesulfonyl)-piperazine-2-carboxylic acid 4-tert-butyl-benzylamide] | > 7.00 | > 7.00
CCCc1ccc(CNC(=O)[C@H]2CN(c3cnc4cncnc4n3)CCN2S(=O)(=O)c2ccc(OC(F)(F)F)cc2)cc1 [Example 574, (R)-4-pteridin-7-yl-1-(4-trifluoromethoxy-benzenesulfonyl)-piperazine-2-carboxylic acid 4-propyl-benzylamide] | > 7.00 | > 7.00
CC(C)(C)c1ccc(CNC(=O)[C@H]2CN(c3cnc(CO)c(N)n3)CCN2S(=O)(=O)c2ccc(OC(F)(F)F)cc2)cc1 [Example 575, (R)-6′-amino-5′-hydroxymethyl-4-(4-trifluoromethoxy-benzenesulfonyl)-3,4,5,6-tetrahydro-2H-[1,2′]bipyrazinyl-3-carboxylic acid 4-tert-butyl-benzylamide] | > 7.00 | > 7.00
CCC(F)(F)c1ccc(CNC(=O)[C@H]2CN(c3nc(C)ns3)CCN2S(=O)(=O)c2ccc(OC(F)(F)F)cc2)cc1 [Example 576, (R)-4-(3-methyl-[1,2,4]thiadiazol-5-yl)-1-(4-trifluoromethoxy-benzenesulfonyl)-piperazine-2-carboxylic acid 4-(1,1-difluoro-propyl)-benzylamide] | > 7.00 | > 7.00
Cc1nc(N2CCN(S(=O)(=O)c3ccc(OC(F)(F)F)cc3)[C@@H](C(=O)NCc3ccc(C(C)(C)C)cc3)C2)sc1C#N [Example 577, (R)-4-(5-cyano-4-methyl-thiazol-2-yl)-1-(4-trifluoromethoxy-benzenesulfonyl)-piperazine-2-carboxylic acid 4-tert-butyl-benzylamide] | > 7.00 | > 7.00
CC(C)(C)c1ccc(CNC(=O)[C@H]2CN(c3nc4c(s3)C(=O)NCC4)CCN2S(=O)(=O)c2ccc(OC(F)(F)F)cc2)cc1 [Example 578, (R)-4-(4-oxo-4,5,6,7-tetrahydro-thiazolo[5,4-c]pyridin-2-yl)-1-(4-trifluoromethoxy-benzenesulfonyl)-piperazine-2-carboxylic acid 4-tert-butyl-benzylamide] | > 7.00 | > 7.00
CC(C)(C)c1ccc(CNC(=O)[C@H]2CN(c3cnc4c(n3)NC(=O)OC4)CCN2S(=O)(=O)c2ccc(OC(F)(F)F)cc2)cc1 [Example 579, (R)-4-(2-oxo-1,4-dihydro-2H-pyrazino[2,3-d][1,3]oxazin-7-yl)-1-(4-trifluoromethoxy-benzenesulfonyl)-piperazine-2-carboxylic acid 4-tert-butyl-benzylamide] | > 7.00 | > 7.00
CCC(F)(F)c1ccc(CNC(=O)[C@H]2CN(c3ccncn3)CCN2S(=O)(=O)c2ccc(OC(F)(F)F)cc2)cc1 [Example 580, (R)-4-pyrimidin-4-yl-1-(4-trifluoromethoxy-benzenesulfonyl)-piperazine-2-carboxylic acid 4-(1,1-difluoro-propyl)-benzylamide] | > 7.00 | > 7.00
CC(C)(C)c1ccc(CNC(=O)[C@H]2CN(c3ccnc(O)n3)CCN2S(=O)(=O)c2ccc(OC(F)(F)F)cc2)cc1 [Example 581, (R)-4-(2-hydroxy-pyrimidin-4-yl)-1-(4-trifluoromethoxy-benzenesulfonyl)-piperazine-2-carboxylic acid 4-tert-butyl-benzylamide] | > 7.00 | > 7.00
CCOC(=O)c1sc(N2CCN(S(=O)(=O)c3ccc(OC(F)(F)F)cc3)[C@@H](C(=O)NCc3ccc(C(C)(C)C)cc3)C2)nc1N [Example 582, 4-amino-2-[(R)-3-(4-tert-butyl-benzylcarbamoyl)-4-(4-trifluoromethoxy-benzenesulfonyl)-piperazin-1-yl]-thiazole-5-carboxylic acid ethyl ester] | 6.00 to 7.00 | 6.00 to 7.00
Cc1nc(N2CCN(S(=O)(=O)c3ccc(OC(F)(F)F)cc3)[C@@H](C(=O)NCc3ccc(C(C)(C)C)cc3)C2)sc1-c1nnn[nH]1 [Example 583, (R)-4-[4-methyl-5-(1H-tetrazol-5-yl)-thiazol-2-yl]-1-(4-trifluoromethoxy-benzenesulfonyl)-piperazine-2-carboxylic acid 4-tert-butyl-benzylamide] | > 7.00 | > 7.00
CCC(F)(F)c1ccc(CNC(=O)[C@H]2CN(c3ccnc(N)n3)CCN2S(=O)(=O)c2ccc(OC(F)(F)F)cc2)cc1 [Example 584, (R)-4-(2-amino-pyrimidin-4-yl)-1-(4-trifluoromethoxy-benzenesulfonyl)-piperazine-2-carboxylic acid 4-(1,1-difluoro-propyl)-benzylamide] | > 7.00 | > 7.00
CCC(F)(F)c1ccc(CNC(=O)[C@H]2CN(c3nccc(N)n3)CCN2S(=O)(=O)c2ccc(OC(F)(F)F)cc2)cc1 [Example 585, (R)-4-(4-amino-pyrimidin-2-yl)-1-(4-trifluoromethoxy-benzenesulfonyl)-piperazine-2-carboxylic acid 4-(1,1-difluoro-propyl)-benzylamide] | 6.00 to 7.00 | 6.00 to 7.00
CCC(F)(F)c1ccc(CNC(=O)[C@H]2CN(c3cnc(C(N)=O)cn3)CCN2S(=O)(=O)c2ccc(OC(F)(F)F)cc2)cc1 [Example 586, (R)-4-(4-trifluoromethoxy-benzenesulfonyl)-3,4,5,6-tetrahydro-2H-[1,2′]bipyrazinyl-3,5′-dicarboxylic acid 5′-amide 3-[4-(1,1-difluoro-propyl)-benzylamide]] | > 7.00 | > 7.00
CC(C)(C)OC(=O)N1CCc2nc(N3CCN(S(=O)(=O)c4ccc(OC(F)(F)F)cc4)[C@@H](C(=O)NCc4ccc(C(C)(C)C)cc4)C3)sc2C1 [Example 587, 2-[(R)-3-(4-tert-butyl-benzylcarbamoyl)-4-(4-trifluoromethoxy-benzenesulfonyl)-piperazin-1-yl]-6,7-dihydro-4H-thiazolo[5,4-c]pyridine-5-carboxylic acid tert-butyl ester] | 6.00 to 7.00 | > 7.00
